Article PMC8766551, “Amino acid residue at position 188 determines the UV-sensitive bistable property of vertebrate non-visual opsin Opn5” (Communications Biology, 2022)
Substitutions are numbered along the chain they refer to.

Key:
Type in all cases: binding
Xenopus tropicalis Opn5m [1] = target: T1, Xenopus tropicalis Opn5m (Xenopus tropicalis, UniProt A0A8J0QRX8); test: absorption spectrum of purified reconstituted pigment, difference spectrum; settings: covalent; all-trans retinal added, dark versus yellow light (>500 nm), 0 °C, pH 6.5; spectral value, no affinity
T1 construct: gene opn5; 21 residues truncated from the C-terminus; expressed in HEK293S cells; purified in DDM on Rho1D4-agarose
T1 sequence (A0A8J0QRX8 1-322): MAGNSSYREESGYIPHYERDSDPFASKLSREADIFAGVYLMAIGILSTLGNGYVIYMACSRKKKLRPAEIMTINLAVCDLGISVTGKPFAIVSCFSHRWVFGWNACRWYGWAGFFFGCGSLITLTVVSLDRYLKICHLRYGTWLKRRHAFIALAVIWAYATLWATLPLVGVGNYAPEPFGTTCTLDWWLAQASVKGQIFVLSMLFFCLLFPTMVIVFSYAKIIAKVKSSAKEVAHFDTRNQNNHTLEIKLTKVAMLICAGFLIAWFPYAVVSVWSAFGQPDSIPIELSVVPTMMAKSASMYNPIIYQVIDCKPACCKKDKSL

Xenopus tropicalis Opn5m [2] = target: T2, Xenopus tropicalis Opn5m (Xenopus tropicalis, UniProt A0A8J0QRX8, T184N); test: as above; settings: covalent; all-trans retinal added, dark versus yellow light (>500 nm), 0 °C, pH 6.5; spectral value, no affinity
T2 construct: gene opn5; 21 residues truncated from the C-terminus; expressed in HEK293S cells; purified in DDM on Rho1D4-agarose
T2 sequence (A0A8J0QRX8 1-322 T184N): T1 sequence (A0A8J0QRX8 1-322) with T184N

Xenopus tropicalis Opn5m [3] = target: T3, Xenopus tropicalis Opn5m (Xenopus tropicalis, UniProt A0A8J0QRX8, T184S); test: as above; settings: covalent; all-trans retinal added, dark versus yellow light (>500 nm), 0 °C, pH 6.5; spectral value, no affinity
T3 construct: gene opn5; 21 residues truncated from the C-terminus; expressed in HEK293S cells; purified in DDM on Rho1D4-agarose
T3 sequence (A0A8J0QRX8 1-322 T184S): T1 sequence (A0A8J0QRX8 1-322) with T184S

Xenopus tropicalis Opn5m [4] = target: T4, Xenopus tropicalis Opn5m (Xenopus tropicalis, UniProt A0A8J0QRX8, L208F); test: as above; settings: covalent; 40 uM all-trans retinal added to collected cell membranes, dark versus yellow light (>500 nm), 0 °C, pH 6.5; spectral value, no affinity
T4 construct: gene opn5; 21 residues truncated from the C-terminus; expressed in HEK293S cells; purified in DDM on Rho1D4-agarose
T4 sequence (A0A8J0QRX8 1-322 L208F): T1 sequence (A0A8J0QRX8 1-322) with L208F

Xenopus tropicalis Opn5m [5] = target: T5, Xenopus tropicalis Opn5m (Xenopus tropicalis, UniProt A0A8J0QRX8, T184G); test: as above; settings: covalent; all-trans retinal added, dark versus yellow light (>500 nm), 0 °C, pH 6.5; spectral value, no affinity
T5 construct: gene opn5; 21 residues truncated from the C-terminus; expressed in HEK293S cells; purified in DDM on Rho1D4-agarose
T5 sequence (A0A8J0QRX8 1-322 T184G): T1 sequence (A0A8J0QRX8 1-322) with T184G

Xenopus tropicalis Opn5m [6] = target: T6, Xenopus tropicalis Opn5m (Xenopus tropicalis, UniProt A0A8J0QRX8, T184C); test: as above; settings: covalent; all-trans retinal added, dark versus yellow light (>500 nm), 0 °C, pH 6.5; spectral value, no affinity
T6 construct: gene opn5; 21 residues truncated from the C-terminus; expressed in HEK293S cells; purified in DDM on Rho1D4-agarose
T6 sequence (A0A8J0QRX8 1-322 T184C): T1 sequence (A0A8J0QRX8 1-322) with T184C

Xenopus tropicalis Opn5m [7] = target: T7, Xenopus tropicalis Opn5m (Xenopus tropicalis, UniProt A0A8J0QRX8, T184Q); test: as above; settings: covalent; all-trans retinal added, dark versus yellow light (>500 nm), 0 °C, pH 6.5; spectral value, no affinity
T7 construct: gene opn5; 21 residues truncated from the C-terminus; expressed in HEK293S cells; purified in DDM on Rho1D4-agarose
T7 sequence (A0A8J0QRX8 1-322 T184Q): T1 sequence (A0A8J0QRX8 1-322) with T184Q

Xenopus tropicalis Opn5m [8] = target: T8, Xenopus tropicalis Opn5m (Xenopus tropicalis, UniProt A0A8J0QRX8, T184A); test: as above; settings: covalent; all-trans retinal added, dark versus yellow light (>500 nm), 0 °C, pH 6.5; spectral value, no affinity
T8 construct: gene opn5; 21 residues truncated from the C-terminus; expressed in HEK293S cells; purified in DDM on Rho1D4-agarose
T8 sequence (A0A8J0QRX8 1-322 T184A): T1 sequence (A0A8J0QRX8 1-322) with T184A

Xenopus tropicalis Opn5m [9] = target: T9, Xenopus tropicalis Opn5m (Xenopus tropicalis, UniProt A0A8J0QRX8, T184M); test: as above; settings: covalent; all-trans retinal added, dark versus yellow light (>500 nm), 0 °C, pH 6.5; spectral value, no affinity
T9 construct: gene opn5; 21 residues truncated from the C-terminus; expressed in HEK293S cells; purified in DDM on Rho1D4-agarose
T9 sequence (A0A8J0QRX8 1-322 T184M): T1 sequence (A0A8J0QRX8 1-322) with T184M

Xenopus tropicalis Opn5m [10] = target: T10, Xenopus tropicalis Opn5m (Xenopus tropicalis, UniProt A0A8J0QRX8, W163F); test: reconstitution, purification, HPLC of retinal oximes; settings: covalent; 40 uM 11-cis retinal added to collected cell membranes, 4 °C, 24 h, dark; pH 6.5; isomer composition, no affinity
T10 construct: gene opn5; 21 residues truncated from the C-terminus; expressed in HEK293S cells; purified in DDM on Rho1D4-agarose
T10 sequence (A0A8J0QRX8 1-322 W163F): T1 sequence (A0A8J0QRX8 1-322) with W163F

Xenopus tropicalis Opn5m [11] = target: T1, Xenopus tropicalis Opn5m; test: as above; settings: covalent; 40 uM 11-cis retinal added to collected cell membranes, 4 °C, 24 h, dark; pH 6.5; isomer composition, no affinity
Xenopus tropicalis Opn5m [12] = target: T4, Xenopus tropicalis Opn5m; test: as above; settings: covalent; 40 uM 11-cis retinal added to collected cell membranes, 4 °C, 24 h, dark; pH 6.5; isomer composition, no affinity

λmax (Xenopus tropicalis Opn5m [1])	λmax (Xenopus tropicalis Opn5m [2])	λmax (Xenopus tropicalis Opn5m [3])	λmax (Xenopus tropicalis Opn5m [4])	λmax (Xenopus tropicalis Opn5m [5])	λmax (Xenopus tropicalis Opn5m [6])	λmax (Xenopus tropicalis Opn5m [7])	λmax (Xenopus tropicalis Opn5m [8])	λmax (Xenopus tropicalis Opn5m [9])	% of bound retinal as 11-cis isomer (Xenopus tropicalis Opn5m [10])	% of bound retinal as 11-cis isomer (Xenopus tropicalis Opn5m [11])	% of bound retinal as 11-cis isomer (Xenopus tropicalis Opn5m [12])	SMILES
474 nm	460 nm	478 nm	475 nm	477 nm	470 nm	483 nm	481 nm	467 nm	–	–	–	CC1=C(/C=C/C(C)=C/C=C/C(C)=C/C=O)C(C)(C)CCC1 [all-trans retinal]
–	–	–	–	–	–	–	–	–	84%	91%	88%	CC1=C(/C=C/C(C)=C/C=C\C(C)=C\C=O)C(C)(C)CCC1 [11-cis retinal]
